# Experiments:
# [1] = Release of SF/Saf microcapsules, released Saf by UV-Vis; type: physicochemical; settings: without silk encapsulation; 10% Pluronic PE 10500 aqueous suspension; FIG. 5C
# Procedure: Release of SF/Saf microcapsules: around 5 mg of different SF/Saf microcapsules were dispersed in 50 mL of 10% Pluronic PE 10500 aqueous suspension, wrapped in Al foil and under 20 rpm mind shaking. After certain time intervals, 0.75 mL of suspension was taken for UV-Vis measurement to determine the concentration of released Saf. The characteristic UV absorption peak position of Saf is around 271 nm.
# All release and degradation tests were run in triplicates, and the standard errors for the analytical results were used to generate and present error bars.
# The surface morphologies of microcapsules structures were investigated using a Zeiss Merlin High-resolution SEM operating at 0.8 kV for low-, medium- and high-resolution imaging. The elemental analysis was carried out on Zeiss Merlin SEM with energy-dispersive X-ray spectroscopy (EDS). Optical images of SF/DA emulsions were taken with a Nikon Eclipse TE2000-E optical microscope. The concentrations of released VC and Saf were determined by ultraviolet-visible (UV-Vis) spectroscopy on a VWR UV-1600PC spectrophotometer. Chemical structures of SF were studied with Fourier transform infrared (FTIR) spectroscopy from a Perkin Elmer Spectrum 65 spectrometer with the attenuated total reflection (ATR) accessory. […] The data was analyzed on volume-based distribution.
# [2] = cited from earlier work
smiles,measurement,setting,value
"CC(C)N(C)S(=O)(=O)NC(=O)c1cc(-n2c(=O)cc(C(F)(F)F)n(C)c2=O)c(F)cc1Cl [Saf, Saflufenacil]",burst release of Saf,[1],~25%
same,solubility in organic solvents,[2]; organic solvents,limited
same,thermal decomposition T,[2]; solid powder,around 236 °C
same,solubility in water,[2]; water,2000 µg/mL
